Source: patent US7101878B1 (Agouron Pharmaceuticals, Inc., priority 1998, dated 2006)
Read-outs that look alike come from different tables or passages of the source. Where a SMILES comes first, the peptide text is derived from it. [ ]: non-standard residue; d: D form. The star is where a group is joined. dPhe(4-Cl) = N[C@H](Cc1ccc(Cl)cc1)C(=O)O; d2Nal = N[C@H](Cc1ccc2ccccc2c1)C(=O)O; Lys(iPr) = CC(C)NCCCC[C@H](N)C(=O)O; d3Pal = N[C@H](Cc1cccnc1)C(=O)O; Nicotinoyl = O=C(c1cccnc1)*

Experiments:
[1] = Pharmacokinetic studies / bioavailability in rats; assay type: in vivo, rat; conditions: for Cmax / Tmax: po
[2] = molecular target: T1, rat GnRH receptor (Rattus norvegicus, UniProt P30969); assay: Radioligand binding, 125I-GnRH-A, rat pituitary membranes; set-up: membranes were prepared from rat pituitary; from tissue; host or cells: rat pituitary
T1 sequence (P30969 1-327): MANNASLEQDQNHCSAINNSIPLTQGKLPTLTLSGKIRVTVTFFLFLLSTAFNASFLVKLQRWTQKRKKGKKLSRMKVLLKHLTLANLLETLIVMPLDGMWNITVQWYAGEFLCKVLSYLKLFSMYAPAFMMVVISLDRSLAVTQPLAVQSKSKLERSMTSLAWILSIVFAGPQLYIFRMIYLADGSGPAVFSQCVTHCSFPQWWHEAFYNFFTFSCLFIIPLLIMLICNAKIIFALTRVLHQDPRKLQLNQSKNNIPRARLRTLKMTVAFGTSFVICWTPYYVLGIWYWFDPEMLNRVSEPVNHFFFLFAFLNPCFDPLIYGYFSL
In short: (§1)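 Bound label captured on 0.1% polyethyleneimine-treated GF/C filters, washed three times with PBS, counted. IC50 derived; identical set-up for every species.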

[3] = Metabolism rate, pmol/min/mg at 1 μM, human; assay type: in vitro ADME; conditions: 1 μM compound
[4] = molecular target: T2, human GnRH receptor (Homo sapiens, UniProt P30968); assay: Radioligand binding, 125I-GnRH-A displacement, membranes of HEK 293 cells with human GnRH receptor
T2 construct: expressed in transfected cells; host or cells: HEK 293 (hGnRH-R/293, from Dr. Stuart Sealfon)
T2 sequence (P30968 1-328): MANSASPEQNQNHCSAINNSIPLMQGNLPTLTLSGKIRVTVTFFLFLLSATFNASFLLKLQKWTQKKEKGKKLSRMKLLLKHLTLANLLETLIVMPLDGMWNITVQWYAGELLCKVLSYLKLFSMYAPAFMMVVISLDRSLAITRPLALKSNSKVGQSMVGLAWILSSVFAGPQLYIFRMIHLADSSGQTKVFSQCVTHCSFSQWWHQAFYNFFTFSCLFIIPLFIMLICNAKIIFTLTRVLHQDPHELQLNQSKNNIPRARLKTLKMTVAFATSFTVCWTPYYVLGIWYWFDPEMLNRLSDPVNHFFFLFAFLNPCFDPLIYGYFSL
In short: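 Bound tracer was separated by filtration through polyethyleneimine-soaked GF/C filters and counted by liquid scintillation. IC50 from curve fitting; other species were tested under the same conditions.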

[5] = molecular target: T3, mouse GnRH receptor (Mus musculus, UniProt Q01776); assay: Radioligand binding, 125I-GnRH-A, 293 cells expressing mouse GnRH receptors
T3 construct: expressed in transfected cells; host or cells: 293 cells
T3 sequence (Q01776 1-327): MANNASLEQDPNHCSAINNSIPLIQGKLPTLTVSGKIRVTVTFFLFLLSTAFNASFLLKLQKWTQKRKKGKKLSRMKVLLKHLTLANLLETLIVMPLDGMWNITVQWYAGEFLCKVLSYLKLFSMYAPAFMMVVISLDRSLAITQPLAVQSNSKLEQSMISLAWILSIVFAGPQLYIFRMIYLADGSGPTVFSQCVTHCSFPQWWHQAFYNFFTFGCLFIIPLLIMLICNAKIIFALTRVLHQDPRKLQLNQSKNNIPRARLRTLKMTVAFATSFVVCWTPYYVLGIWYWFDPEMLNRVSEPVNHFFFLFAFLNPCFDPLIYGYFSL
In short: as §1

[6] = molecular target: 5-HT7 (Homo sapiens, UniProt P34969); assay: Selectivity: 5-HT7
[7] = molecular target: D2 Dopamine (Homo sapiens, UniProt P14416); assay: Selectivity: D2 Dopamine
[8] = molecular target: T4, bovine GnRH receptor (Bos taurus, UniProt P32236); assay: Radioligand binding, 125I-GnRH-A, bovine pituitary membranes
T4 construct: membranes were prepared from bovine pituitary; from tissue; host or cells: bovine pituitary
T4 sequence (P32236 1-328): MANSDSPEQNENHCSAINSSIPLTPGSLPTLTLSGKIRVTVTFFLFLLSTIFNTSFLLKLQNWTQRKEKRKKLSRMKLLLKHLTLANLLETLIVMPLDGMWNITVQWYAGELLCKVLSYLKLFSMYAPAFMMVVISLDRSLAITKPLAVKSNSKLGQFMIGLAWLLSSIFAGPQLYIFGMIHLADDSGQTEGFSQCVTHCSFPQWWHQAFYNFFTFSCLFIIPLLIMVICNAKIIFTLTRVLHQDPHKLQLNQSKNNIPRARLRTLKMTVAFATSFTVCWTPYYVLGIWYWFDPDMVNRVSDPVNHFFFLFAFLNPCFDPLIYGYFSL
In short: as §1

[9] = female, rat, plasma, 10 mg/kg, rat female, p.o. 10 mg/kg, 5 mg/ml solution in 10% DMSO 10% cremophor 80% saline
[10] = female, rat, plasma, rat female
[11] = rat female, 5 mg/ml solution in 10% DMSO 10% cremophor 80% saline
[12] = female, rat, plasma, 20 mg/kg, rat female, p.o. 20 mg/kg, 10 mg/ml solution in 10% DMSO 10% cremophor 80% saline
[13] = male, rat, plasma, iv, 10 mg/kg, rat male
[14] = male, rat, plasma, 20 mg/kg, rat male, p.o. 20 mg/kg, 40 mg/ml in PEG400
[15] = male, rat, plasma, 20 mg/kg, rat male, p.o. 20 mg/kg, vehicle per footnote (DMSO/cremophor/saline)
[16] = rat female, p.o. 20 mg/kg, 10 mg/ml solution in 10% DMSO 10% cremophor 80% saline
[17] = rat male, p.o. 20 mg/kg, vehicle per footnote (DMSO/cremophor/saline)
[18] = means ± SE of at least three experiments performed in duplicate, read-out: Rat IC50
[19] = means ± SE of at least three experiments performed in duplicate, read-out: Human IC50
[20] = second value marked * (mostly in parentheses), asterisk not explained, read-out: hGnRH IC50, value marked *
[21] = means ± SE of at least three experiments performed in duplicate, read-out: Mouse IC50
[22] = means ± SE of at least three experiments performed in duplicate, read-out: Bovine IC50
[23] = male, rat, plasma, 10 mg/kg, rat male, p.o. 10 mg/kg, vehicle per footnote
[24] = plasma, ip, rat, i.p. 20 mg/kg, read-out: Bioavailability after i.p. dosing
[25] = male, rat, plasma, 20 mg/kg, castrated male rats, p.o. 20 mg/kg, 10 mg/ml solution in 10% DMSO 10% cremophor 80% saline

D2 Dopamine, sequence (P14416 whole entry): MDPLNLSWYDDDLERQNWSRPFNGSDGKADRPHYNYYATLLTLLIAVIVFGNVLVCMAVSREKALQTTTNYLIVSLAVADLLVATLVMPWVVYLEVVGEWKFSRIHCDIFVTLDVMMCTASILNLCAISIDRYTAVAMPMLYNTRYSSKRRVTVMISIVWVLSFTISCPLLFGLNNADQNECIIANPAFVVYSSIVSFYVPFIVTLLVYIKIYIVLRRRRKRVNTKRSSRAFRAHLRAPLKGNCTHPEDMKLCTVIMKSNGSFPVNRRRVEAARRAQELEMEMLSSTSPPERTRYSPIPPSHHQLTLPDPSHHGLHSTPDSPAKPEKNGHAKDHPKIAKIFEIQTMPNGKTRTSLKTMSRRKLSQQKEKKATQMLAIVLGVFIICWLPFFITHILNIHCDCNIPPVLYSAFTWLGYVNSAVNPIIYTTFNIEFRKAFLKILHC
5-HT7, sequence (P34969 whole entry, species assumed): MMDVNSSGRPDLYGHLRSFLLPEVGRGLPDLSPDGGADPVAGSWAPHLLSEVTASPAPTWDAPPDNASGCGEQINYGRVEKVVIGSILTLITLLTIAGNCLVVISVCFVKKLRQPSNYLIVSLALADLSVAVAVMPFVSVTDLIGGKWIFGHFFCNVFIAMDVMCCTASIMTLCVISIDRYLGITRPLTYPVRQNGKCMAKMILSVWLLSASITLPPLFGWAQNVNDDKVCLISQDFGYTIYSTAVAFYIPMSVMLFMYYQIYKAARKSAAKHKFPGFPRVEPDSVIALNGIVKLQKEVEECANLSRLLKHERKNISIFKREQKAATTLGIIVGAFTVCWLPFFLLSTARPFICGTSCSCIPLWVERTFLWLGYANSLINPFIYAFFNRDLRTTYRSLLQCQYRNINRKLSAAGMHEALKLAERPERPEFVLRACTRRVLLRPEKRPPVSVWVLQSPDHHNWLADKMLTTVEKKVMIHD

SMILES	half-life [1, 10] [h]	IC50 ([2]; read-out: rGnRH IC50) [µM]	Human pmol/min/mg 1 μM [3] [pmol/min/mg]	IC50 ([4]; read-out: hGnRH IC50) [µM]	IC50 ([5]; read-out: mGnRH IC50) [µM]	half-life [1, 13] [h]	Cmax [1, 15] [µM]	Tmax [1, 15] [h]	Fp.o. [1, 17]	Ki [6] [µM]	Ki [7] [µM]	IC50 [2, 18] [µM]	IC50 [4, 19] [µM]	IC50 [5, 21] [µM]	IC50 [8, 22] [µM]	also measured
COc1cc(OC)c(NC(=O)c2ccc(Cc3cc(C(C)(C)C)ccc3C)o2)c(OC)c1 [Compound 200]	2	0.0028	346	0.042	0.013	–	–	–	–	–	–	–	–	–	–	Cmax [1, 9]: 0.96 µM; Tmax [1, 9]: 1.5 h; Fp.o. [1, 11]: 33% (10 mg/kg)^10
Cc1cc2c(cc1Cc1ccc(C(=O)NCc3cccc(CNc4ccnc(NC[C@@H]5CCCO5)n4)c3)o1)C(C)(C)CCC2(C)C [Compound 136]	3.2	0.0047	191	–	0.0086	2	0.24	2	6% (20 mg/kg)^4	2.4	0.16	–	–	–	–	Cmax [1, 12]: 0.24 µM; Tmax [1, 12]: 2.5 h; Tmax [1, 14]: 4 h; Tmax ([1]; male, rat, plasma, 20 mg/kg, rat male, p.o. 20 mg/kg, in PG): 3.5 h; bioavailability ([1]; plasma, other: portal vein infusion, rat, portal vein infusion 20 mg/kg, read-out: Portal vein infusion: bioavailable): 36%; Fp.o. [1, 16]: 8% (20 mg/kg)^1
Cc1cc2c(cc1Cc1ccc(C(=O)NC[C@H]3CC[C@H](CNC(=N)N)CC3)o1)C(C)(C)CCC2(C)C [Compound 10]	–	0.39	–	0.13	1.4	–	–	–	–	1.27	–	0.39 ± 0.01	0.13 ± 0.024	1.4 ± 0.44	1.5 ± 0.48	IC50 [4, 20]: 0.02 µM
Cc1cc2c(cc1Cc1ccc(C(=O)NCC3CCCC(CNc4nccc(NCC5CCCO5)n4)C3)o1)C(C)(C)CCC2(C)C (stereo not shown) [Compound 11]	–	0.009	–	0.19	0.05	3	–	–	–	1.8	0.15	0.009 ± 0.0003	0.19 ± 0.04	0.05 ± 0.01	0.32 ± 0.01	Cmax [1, 23]: 0.15 µM; Tmax [1, 23]: 1.5 to 3.5 h; concentration at 4 h ([1]; rat, plasma, iv, four hours after i.v. injection, 10 mg/kg): 0.1 to 0.2 µM; IC50 [4, 20]: 0.08 µM
Cc1cc2c(cc1Cc1ccc(C(=O)NCc3cccc(CNc4nccc(NCC5CCCO5)n4)c3)o1)C(C)(C)CCC2(C)C (stereo not shown) [Compound 70]	–	0.006	311	0.05	0.006	0.967	–	–	–	–	–	–	–	–	–	IC50 ([8]; read-out: bGnRH IC50): 0.043 µM
Cc1cc2c(cc1Cc1ccc(C(=O)NC[C@H]3CC[C@H](C(=O)O)CC3)o1)C(C)(C)CCC2(C)C [Compound 12]	–	3.08	–	0.23	7.13	0.6	–	–	–	> 4.5	1.4	3.08 ± 0.63	0.23 ± 0.037	7.13 ± 1.35	10.4 ± 3	IC50 [4, 20]: 0.21 µM
COc1cccc(OC)c1NC(=O)c1ccc(Cc2cc3c(cc2C)C(C)(C)CCC3(C)C)o1 [Compound 20]	–	0.005	–	0.008	0.02	0.867	0.2	1	–	> 4.4	> 3.2	–	0.008 ± 0.0009	–	–	IC50 ([8]; read-out: bGnRH IC50): 0.13 µM
COc1cc(OC)c(NC(=O)c2ccc(Cc3cc4c(cc3C)CCCC4(C)C)o2)c(OC)c1 [Compound 183]	3.6	0.0025	238	0.0068	0.0027	4.1	–	–	–	–	–	–	–	–	–	Cmax [1, 9]: 0.51 µM; Tmax [1, 9]: 1 h; Cmax [1, 23]: 0.35 µM; Tmax [1, 23]: 1 h; Fp.o. [1, 11]: 37% (10 mg/kg)^10; Fp.o. ([1]; rat male, vehicle per footnote): 29% (10 mg/kg)^10
CC(=O)N[C@H](Cc1ccc2ccccc2c1)C(=O)N[C@H](Cc1ccc(Cl)cc1)C(=O)N[C@H](Cc1cccnc1)C(=O)N[C@@H](CO)C(=O)N[C@@H](CCCCNC(=O)c1cccnc1)C(=O)N[C@H](CCCCNC(=O)c1cccnc1)C(=O)N[C@@H](CC(C)C)C(=O)N[C@@H](CCCCNC(C)C)C(=O)N1CCC[C@H]1C(=O)N[C@H](C)C(N)=O [Antide, reference compound] (Ac-[d2Nal][dPhe(4-Cl)][d3Pal]SK(Nicotinoyl)[dK](Nicotinoyl)L[Lys(iPr)]P[dA]-NH2)	–	–	–	–	–	–	–	–	–	–	–	0.00019 ± 4e-05	0.00067 ± 9e-05	0.00025 ± 5e-05	0.00015 ± 2e-05	–
COc1cc(OC)c(NC(=O)c2ccc(Cc3cc4c(cc3C)C(C)(C)CCC4(C)C)o2)c(OC)c1C#N [Compound 177]	–	0.0057	876	0.0074	0.0073	2.2	–	–	0 (20 mg/kg)^9%	–	–	–	–	–	–	bioavailability [1, 24]: 8%
COc1cc(OC)c(NC(=O)c2ccc(Cc3cc4c(cc3C)C(C)(C)CCC4(C)C)o2)c(OC)c1 [Compound 134]	1.7	0.003	630	0.006	0.003	1.4	0.61	1	8% (20 mg/kg)^5	> 4.4	2.4	–	–	–	–	Fp.o. ([1]; castrated male rats, p.o. 20 mg/kg, 10 mg/ml solution in 10% DMSO 10% cremophor 80% saline): 23% (20 mg/kg)^1; Cmax [1, 12]: 2.31 µM; Tmax [1, 12]: 1 h; half-life ([1]; male, rat, plasma, castrated male rats): 1.7 h; Cmax [1, 25]: 1.98 µM; Tmax [1, 25]: 1.5 h; Cmax [1, 14]: 0.23 µM; bioavailability [1, 24]: 38%; Fp.o. [1, 16]: 24% (20 mg/kg)^1
COc1cc(OC)c(NC(=O)c2ccc(Cc3cc4c(cc3OC)C(C)(C)CCC4(C)C)o2)c(OC)c1 [Compound 169]	–	0.007	589	0.012	0.005	1.5	0.97	1	27% (20 mg/kg)^1	–	3.4	–	–	–	–	bioavailability [1, 24]: 70%
